Patent US8557225B2, “Solution and method for cleaning tooth enamel” (priority 2008, dated 2013)

Experiments:
[1] = citric acid solution applied over the enamel; format: in vivo; details: 6% citric acid in the improved solution, over the teeth enamel
Text: Citric acid as incorporated in the present disclosure is an irrigating substance classified as a chelating agent which, due to its low pH, reacts with the metallic ions in the hydroxyapatite crystals in order to produce a metallic chelating agent which reacts with the chelating agent's terminal groups when removing calcium ions of the dentine, forming a ring. The dentine softens changing the solubility and permeability aspects of the tissue, especially the peritubular dentine, rich in hydroxyapatite, increasing the diameter of the exposed dental tubes. These chelating agent properties also provide a great affinity as thus used due to ferrous alkali characteristics of the dental structure. Also, this chelating agent is naturally found inside the body, thus making it biologically more acceptable than other acids. Citric acid is effective in altering the hydroxyapatite solubility; it has been used in several concentrations, from 0.6 up to 50% by weight. Its effect is very fast and it only requires five seconds to apply a 6% solution over the enamel to remove the undesired dental covering.
This action is favorably strengthened when citric acid (C6O7H8) is included in the composition at the approximate 6% (weight percent) level. (Tables 1 and 2). […]

[2] = 6% solution applied over the enamel; cited from earlier work

In the case of `O=C(O)CC(O)(CC(=O)O)C(=O)O` [Citric acid, citric acid], the “time required after applying for dissolving the organic matter” value [1] is given as “thirty seconds” and the “time required to remove the undesired dental covering” value [2] is given as “five seconds”.
